# ChEMBL document CHEMBL4376854, “Investigation of the Adrenergic and Opioid Binding Affinities, Metabolic Stability, Plasma Protein Binding Properties, and Functional Effects of Selected Indole-Based Kratom Alkaloids” (J Med Chem, 2020)
# pKi: −log10 of the molar value.
# Legend:
# [1] = target: T1, Delta-type opioid receptor (Homo sapiens, UniProt P41143); assay: Displacement of [3H]DADLE from human recombinant delta opioid receptor expressed in rat Chem-1 (RBL) cell membranes at 100 nM incubated for 60 mins relative to control
# T1 sequence (P41143 whole entry): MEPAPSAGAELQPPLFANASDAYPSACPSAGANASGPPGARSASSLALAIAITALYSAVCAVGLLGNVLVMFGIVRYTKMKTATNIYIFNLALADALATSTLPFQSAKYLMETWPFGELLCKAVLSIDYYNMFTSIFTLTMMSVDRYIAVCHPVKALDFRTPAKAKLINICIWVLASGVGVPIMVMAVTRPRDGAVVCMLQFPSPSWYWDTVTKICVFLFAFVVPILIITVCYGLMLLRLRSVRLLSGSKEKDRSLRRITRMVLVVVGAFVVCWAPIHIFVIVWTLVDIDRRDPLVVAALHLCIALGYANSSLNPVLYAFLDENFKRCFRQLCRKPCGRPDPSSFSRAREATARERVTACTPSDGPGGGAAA
# [2] = human, plasma, 1 µM
# [3] = target: T2, Alpha-2B adrenergic receptor (Homo sapiens) (UniProt P18089); conditions: CHO, 10000 nM
# T2 sequence (whole entry): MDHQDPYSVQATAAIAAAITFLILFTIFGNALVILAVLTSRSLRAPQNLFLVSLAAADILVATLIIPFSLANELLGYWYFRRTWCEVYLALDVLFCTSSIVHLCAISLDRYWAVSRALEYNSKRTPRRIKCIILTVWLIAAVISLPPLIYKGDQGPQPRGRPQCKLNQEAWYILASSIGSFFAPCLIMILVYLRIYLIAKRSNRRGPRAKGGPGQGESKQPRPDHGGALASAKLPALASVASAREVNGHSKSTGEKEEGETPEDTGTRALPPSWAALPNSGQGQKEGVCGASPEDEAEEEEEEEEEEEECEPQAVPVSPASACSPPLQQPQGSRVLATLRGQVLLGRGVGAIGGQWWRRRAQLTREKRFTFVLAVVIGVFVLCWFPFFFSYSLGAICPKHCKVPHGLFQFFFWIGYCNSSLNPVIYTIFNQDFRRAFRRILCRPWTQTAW
# [4] = target: T3, Alpha-1A adrenergic receptor (Homo sapiens) (UniProt P35348); conditions: CHO, 100 nM
# T3 sequence (whole entry): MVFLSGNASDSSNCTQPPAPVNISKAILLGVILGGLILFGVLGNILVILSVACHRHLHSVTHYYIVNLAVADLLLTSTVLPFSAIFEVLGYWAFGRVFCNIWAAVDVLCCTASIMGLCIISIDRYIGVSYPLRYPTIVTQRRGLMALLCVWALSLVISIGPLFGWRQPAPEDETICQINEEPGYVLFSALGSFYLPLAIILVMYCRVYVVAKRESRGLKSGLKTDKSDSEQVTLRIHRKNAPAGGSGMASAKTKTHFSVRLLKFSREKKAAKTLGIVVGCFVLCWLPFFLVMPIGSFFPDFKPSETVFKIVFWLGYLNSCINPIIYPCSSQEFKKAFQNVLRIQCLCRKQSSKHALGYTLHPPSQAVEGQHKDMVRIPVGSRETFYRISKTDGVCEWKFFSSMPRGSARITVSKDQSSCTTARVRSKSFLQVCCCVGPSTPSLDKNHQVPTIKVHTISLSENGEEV
# [5] = target: T4, Kappa-type opioid receptor (Homo sapiens, UniProt P41145); assay: Displacement of [3H]U69,593 from human recombinant kappa opioid receptor expressed in rat RBL cell membranes incubated for 60 mins
# T4 sequence (P41145 whole entry): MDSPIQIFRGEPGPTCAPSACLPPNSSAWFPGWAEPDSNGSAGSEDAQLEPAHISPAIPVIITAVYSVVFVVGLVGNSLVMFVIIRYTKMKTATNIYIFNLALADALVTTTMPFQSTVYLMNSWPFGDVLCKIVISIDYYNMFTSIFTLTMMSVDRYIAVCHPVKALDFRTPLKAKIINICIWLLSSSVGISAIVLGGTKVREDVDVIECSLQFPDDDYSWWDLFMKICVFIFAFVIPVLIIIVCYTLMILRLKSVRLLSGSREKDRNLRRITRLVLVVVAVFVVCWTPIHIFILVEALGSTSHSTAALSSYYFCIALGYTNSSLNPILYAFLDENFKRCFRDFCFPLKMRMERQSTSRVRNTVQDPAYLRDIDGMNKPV
# [6] = target: Nociceptin receptor (Homo sapiens) (UniProt P41146); conditions: 10000 nM
# Chain of Nociceptin receptor (Homo sapiens) (P41146 whole entry): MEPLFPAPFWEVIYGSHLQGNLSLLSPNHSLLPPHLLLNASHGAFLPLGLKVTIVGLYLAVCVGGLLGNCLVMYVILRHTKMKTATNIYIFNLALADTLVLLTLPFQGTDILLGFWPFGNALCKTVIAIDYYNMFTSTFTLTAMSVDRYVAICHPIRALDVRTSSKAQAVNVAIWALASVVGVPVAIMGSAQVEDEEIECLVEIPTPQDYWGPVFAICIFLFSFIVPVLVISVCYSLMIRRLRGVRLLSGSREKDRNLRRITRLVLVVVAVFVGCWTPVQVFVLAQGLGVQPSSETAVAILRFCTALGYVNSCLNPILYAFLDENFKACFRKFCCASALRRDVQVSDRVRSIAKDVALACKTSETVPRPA
# [7] = target: T5, Alpha-1D adrenergic receptor (Homo sapiens) (UniProt P25100); conditions: CHO, 100 nM
# T5 sequence (whole entry): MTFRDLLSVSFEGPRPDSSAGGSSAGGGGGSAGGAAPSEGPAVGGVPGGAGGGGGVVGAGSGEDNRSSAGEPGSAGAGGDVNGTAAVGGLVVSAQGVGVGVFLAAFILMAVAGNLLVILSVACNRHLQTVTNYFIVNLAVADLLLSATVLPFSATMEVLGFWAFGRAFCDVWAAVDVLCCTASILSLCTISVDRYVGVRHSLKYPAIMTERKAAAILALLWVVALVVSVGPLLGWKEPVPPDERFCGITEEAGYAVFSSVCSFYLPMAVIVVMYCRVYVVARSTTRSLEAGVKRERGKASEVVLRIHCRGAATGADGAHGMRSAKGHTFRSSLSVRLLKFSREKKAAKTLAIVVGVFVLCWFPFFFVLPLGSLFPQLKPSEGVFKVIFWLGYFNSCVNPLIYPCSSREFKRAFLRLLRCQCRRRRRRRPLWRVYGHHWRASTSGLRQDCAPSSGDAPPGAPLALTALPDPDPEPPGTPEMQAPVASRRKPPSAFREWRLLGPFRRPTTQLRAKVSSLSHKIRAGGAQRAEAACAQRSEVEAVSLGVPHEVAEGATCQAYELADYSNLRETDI
# [8] = target: T5, Alpha-1D adrenergic receptor (Homo sapiens); conditions: CHO, 10000 nM
# [9] = Toxicity in Sprague-Dawley rat assessed as induction of hypothermia at 0.0032 to 10 mg/kg, iv; assay type: organism-based; conditions: in vivo
# [10] = target: T6, Alpha-2A adrenergic receptor (Homo sapiens) (UniProt P08913); conditions: CHO, 100 nM
# T6 sequence (whole entry): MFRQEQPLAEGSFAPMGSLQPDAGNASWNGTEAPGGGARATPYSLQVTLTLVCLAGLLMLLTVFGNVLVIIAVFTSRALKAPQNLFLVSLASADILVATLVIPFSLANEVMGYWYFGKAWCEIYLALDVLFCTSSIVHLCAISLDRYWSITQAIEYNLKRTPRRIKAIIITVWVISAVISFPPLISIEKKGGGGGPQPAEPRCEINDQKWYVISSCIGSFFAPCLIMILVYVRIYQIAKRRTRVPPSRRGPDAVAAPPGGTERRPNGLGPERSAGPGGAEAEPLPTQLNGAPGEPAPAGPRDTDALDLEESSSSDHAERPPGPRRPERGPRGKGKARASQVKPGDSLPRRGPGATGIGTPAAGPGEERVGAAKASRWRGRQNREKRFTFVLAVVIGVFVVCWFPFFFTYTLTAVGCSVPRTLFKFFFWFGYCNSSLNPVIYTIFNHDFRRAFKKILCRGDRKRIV
# [11] = target: T4, Kappa-type opioid receptor; conditions: 100 nM
# [12] = target: T1, Delta-type opioid receptor; assay: Displacement of [3H]DADLE from human recombinant delta opioid receptor expressed in rat Chem-1 (RBL) cell membranes at 10000 nM incubated for 60 mins relative to control
SMILES,inhibition [1],Fu [2],inhibition [3],inhibition [4],pKi [5],inhibition [6],inhibition [7],inhibition [8],Activity [9],inhibition [10],inhibition [11],inhibition [12]
CC[C@@H]1CN2CCc3c([nH]c4cccc(OC)c34)[C@H]2C[C@@H]1/C(=C\OC)C(=O)OC,0.6%,0.01,67.2%,16.8%,6.94,31.8%,6.3%,70.5%,Toxic,7%,61.9%,69.2%
CC[C@@H]1CN2CCc3c([nH]c4cccc(OC)c34)[C@@H]2C[C@@H]1/C(=C\OC)C(=O)OC,0.4%,0.02,25.1%,13.2%,6.70,40.8%,-2.1%,57.9%,Non-Toxic,-8%,25.2%,18.3%
